For test [1], the target named is T1, Corticotropin-releasing factor receptor 1 (Mus musculus, UniProt P35347).
T1 sequence (P35347 whole entry): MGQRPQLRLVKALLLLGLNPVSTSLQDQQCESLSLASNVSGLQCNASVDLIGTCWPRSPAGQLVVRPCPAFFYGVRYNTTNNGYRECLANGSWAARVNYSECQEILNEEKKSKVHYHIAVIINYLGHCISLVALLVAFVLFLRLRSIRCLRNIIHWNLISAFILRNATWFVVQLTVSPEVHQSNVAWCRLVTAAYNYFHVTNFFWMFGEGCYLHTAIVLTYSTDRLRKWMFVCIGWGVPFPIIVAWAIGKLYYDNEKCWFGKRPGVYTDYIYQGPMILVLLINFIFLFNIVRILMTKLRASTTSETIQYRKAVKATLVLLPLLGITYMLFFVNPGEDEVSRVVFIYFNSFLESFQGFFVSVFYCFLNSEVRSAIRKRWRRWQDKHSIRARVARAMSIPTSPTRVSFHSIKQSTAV
The experiment in a line: In vitro effective concentration for mouse corticotropin releasing factor 1 receptor.

The target of test [2] is Corticotropin-releasing factor receptor 2 (Mus musculus, UniProt Q60748). The experiment in a line: In vitro effective concentration for mouse corticotropin releasing factor 2 receptor.
For test [3], the target named is T2, Corticotropin-releasing factor receptor 1 (Mus musculus) (UniProt P35347).
T2 sequence (whole entry): T1 sequence (P35347 whole entry)
The experiment in a line: In vitro agonistic activity against mouse corticotropin releasing factor 1 receptor. In kind it is functional.

Test [4] concerns the target Corticotropin-releasing factor receptor 2 (Mus musculus) (UniProt Q60748). The test is described as follows: In vitro agonistic activity against mouse corticotropin releasing factor 2 receptor. In kind it is functional.
For the next test, the species on record is Mus musculus. The experiment in a line: Selectivity ratio of EC50s for mouse corticotropin releasing factor receptors 1 and 2.

From ChEMBL document CHEMBL1139487, “Discovery of corticotropin releasing factor 2 receptor selective sauvagine analogues for treatment of skeletal muscle atrophy” (J Med Chem, 2005) come the findings set out here.

Chain of Corticotropin-releasing factor receptor 2 (Mus musculus) (Q60748 whole entry): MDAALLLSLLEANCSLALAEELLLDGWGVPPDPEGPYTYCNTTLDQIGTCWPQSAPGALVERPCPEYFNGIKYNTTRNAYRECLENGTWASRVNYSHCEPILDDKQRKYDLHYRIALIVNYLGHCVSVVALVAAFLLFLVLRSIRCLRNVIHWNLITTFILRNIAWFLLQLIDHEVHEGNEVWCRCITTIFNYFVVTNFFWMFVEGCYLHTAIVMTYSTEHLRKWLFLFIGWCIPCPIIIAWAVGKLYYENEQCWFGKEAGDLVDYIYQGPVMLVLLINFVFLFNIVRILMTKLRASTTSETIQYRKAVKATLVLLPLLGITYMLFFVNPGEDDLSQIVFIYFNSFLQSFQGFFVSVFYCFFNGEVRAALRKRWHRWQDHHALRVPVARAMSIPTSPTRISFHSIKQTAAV
Chain of Corticotropin-releasing factor receptor 2 (Q60748 whole entry): as above

For the compound `CC[C@H](C)[C@H](NC(=O)[C@@H](NC(=O)[C@H](CC(=O)O)NC(=O)[C@H](CC(C)C)NC(=O)[C@H](CC(C)C)NC(=O)[C@H](CC(C)C)NC(=O)[C@H](CCCN=C(N)N)NC(=O)[C@H](CC(N)=O)NC(=O)[C@H](CC(N)=O)NC(=O)[C@H](C)NC(=O)[C@H](C)NC(=O)[C@H](CCC(N)=O)NC(=O)[C@H](CCC(N)=O)NC(=O)[C@H](CCCCN)NC(=O)[C@H](CCC(=O)O)NC(=O)[C@H](CCCCN)NC(=O)[C@H](CCC(=O)O)NC(=O)[C@H](CCC(N)=O)NC(=O)[C@H](CCCCN)NC(=O)[C@H](CCC(=O)O)NC(=O)[C@@H](NC(=O)[C@H](CCC(=O)O)NC(=O)[C@@H](NC(=O)[C@H](CCSC)NC(=O)[C@H](CCCCN)NC(=O)[C@H](CCCN=C(N)N)NC(=O)[C@H](CC(C)C)NC(=O)[C@H](CC(C)C)NC(=O)[C@H](Cc1c[nH]c2ccccc12)NC(=O)[C@H](Cc1c[nH]cn1)NC(=O)[C@@H]1CCCN1C(=O)[C@H](CC(C)C)NC(=O)[C@H](CC(=O)O)NC(=O)[C@@H](NC(=O)[C@H](CO)NC(=O)[C@@H](NC(=O)[C@@H]1CCCN1C(=O)[C@@H]1CCCN1C(=O)CNC(=O)[C@@H]1CCC(=O)N1)[C@@H](C)CC)[C@@H](C)CC)[C@@H](C)CC)[C@@H](C)CC)[C@@H](C)O)C(=O)O`, the EC50 (in general, the midpoint of the concentration-response curve) in test [1] came to 0.408 µM; in test [2], 0.0251 µM. Also, the Emax in test [3] and in test [4] was 100% throughout. In the test listed under Mus musculus, the Selectivity came out at 16.

Consider `CC[C@H](C)[C@H](NC(=O)[C@@H](NC(=O)[C@H](CC(=O)O)NC(=O)[C@H](CC(C)C)NC(=O)[C@H](CC(C)C)NC(=O)[C@H](CC(C)C)NC(=O)[C@H](CCCN=C(N)N)NC(=O)[C@H](CC(N)=O)NC(=O)[C@H](CC(N)=O)NC(=O)[C@H](C)NC(=O)[C@H](C)NC(=O)[C@H](CCC(N)=O)NC(=O)[C@H](CCC(N)=O)NC(=O)[C@H](CCCCN)NC(=O)[C@H](CCC(=O)O)NC(=O)[C@H](CCCCN)NC(=O)[C@H](CCC(=O)O)NC(=O)[C@H](CCC(N)=O)NC(=O)[C@H](CCCCN)NC(=O)[C@H](CCC(=O)O)NC(=O)[C@@H](NC(=O)[C@H](CCC(=O)O)NC(=O)[C@@H](NC(=O)[C@H](CCSC)NC(=O)[C@H](CCCCN)NC(=O)[C@H](CCCN=C(N)N)NC(=O)[C@H](CC(C)C)NC(=O)[C@H](CC(C)C)NC(=O)[C@H](Cc1ccccc1)NC(=O)[C@H](Cc1c[nH]cn1)NC(=O)[C@@H]1CCCN1C(=O)[C@H](CC(C)C)NC(=O)[C@H](CC(=O)O)NC(=O)[C@@H](NC(=O)[C@H](CO)NC(=O)[C@@H](NC(=O)[C@@H]1CCCN1C(=O)[C@@H]1CCCN1C(=O)CNC(=O)[C@@H]1CCC(=O)N1)[C@@H](C)CC)[C@@H](C)CC)[C@@H](C)CC)[C@@H](C)CC)[C@@H](C)O)C(=O)O`, for which the EC50 was determined as 0.0809 µM in test [1] and 0.0078 µM in test [2]. The values for the Emax in test [3] and in test [4] were 100% and 98%, respectively. In addition, the Selectivity in the test listed under Mus musculus was 10.

With `CC[C@H](C)[C@H](NC(=O)[C@@H](NC(=O)[C@H](CC(=O)O)NC(=O)[C@H](CC(C)C)NC(=O)[C@H](CC(C)C)NC(=O)[C@H](CC(C)C)NC(=O)[C@H](CCCN=C(N)N)NC(=O)[C@H](CC(N)=O)NC(=O)[C@H](CC(N)=O)NC(=O)[C@H](C)NC(=O)[C@H](C)NC(=O)[C@H](CCC(N)=O)NC(=O)[C@H](CCC(N)=O)NC(=O)[C@H](CCCCN)NC(=O)[C@H](CCC(=O)O)NC(=O)[C@H](CCCCN)NC(=O)[C@H](CCC(=O)O)NC(=O)[C@H](CCC(N)=O)NC(=O)[C@H](CCCCN)NC(=O)[C@H](CCC(=O)O)NC(=O)[C@@H](NC(=O)[C@H](CCC(=O)O)NC(=O)[C@@H](NC(=O)[C@H](CCSC)NC(=O)[C@H](CCCCN)NC(=O)[C@H](CCCN=C(N)N)NC(=O)[C@H](CC(C)C)NC(=O)[C@H](CC(C)C)NC(=O)[C@H](CCC(N)=O)NC(=O)[C@@H](NC(=O)[C@@H]1CCCN1C(=O)[C@H](CC(C)C)NC(=O)[C@H](CC(=O)O)NC(=O)[C@@H](NC(=O)[C@H](CO)NC(=O)[C@@H](NC(=O)[C@@H]1CCCN1C(=O)[C@@H]1CCCN1C(=O)CNC(=O)[C@@H]1CCC(=O)N1)[C@@H](C)CC)[C@@H](C)CC)[C@@H](C)CC)[C@@H](C)CC)[C@@H](C)CC)[C@@H](C)O)C(=O)O`, the EC50 was more than 1 µM in test [1] and 0.0246 µM in test [2]. The Emax – broadly, the maximal effect, on the per cent scale that the assay sets – amounted to 6% in test [3] and 78% in test [4]. Further, the Selectivity in the test listed under Mus musculus was more than 41.

`CC[C@H](C)[C@H](NC(=O)[C@@H](NC(=O)[C@H](CC(=O)O)NC(=O)[C@H](CC(C)C)NC(=O)[C@H](CC(C)C)NC(=O)[C@H](CC(C)C)NC(=O)[C@H](CCCN=C(N)N)NC(=O)[C@H](CC(N)=O)NC(=O)[C@H](CC(N)=O)NC(=O)[C@H](C)NC(=O)[C@H](C)NC(=O)[C@H](CCC(N)=O)NC(=O)[C@H](CCC(N)=O)NC(=O)[C@H](CCCCN)NC(=O)[C@H](CCC(=O)O)NC(=O)[C@H](CCCCN)NC(=O)[C@H](CCC(=O)O)NC(=O)[C@H](CCC(N)=O)NC(=O)[C@H](CCCCN)NC(=O)[C@H](CCC(=O)O)NC(=O)[C@@H](NC(=O)[C@H](CCC(=O)O)NC(=O)[C@@H](NC(=O)[C@H](CCSC)NC(=O)[C@H](CCCCN)NC(=O)[C@H](CCCN=C(N)N)NC(=O)[C@H](CC(C)C)NC(=O)[C@H](CC(C)C)NC(=O)[C@@H](NC(=O)[C@@H](NC(=O)[C@@H]1CCCN1C(=O)[C@H](CC(C)C)NC(=O)[C@H](CC(=O)O)NC(=O)[C@@H](NC(=O)[C@H](CO)NC(=O)[C@@H](NC(=O)[C@@H]1CCCN1C(=O)[C@@H]1CCCN1C(=O)CNC(=O)[C@@H]1CCC(=O)N1)[C@@H](C)CC)[C@@H](C)CC)[C@@H](C)CC)[C@@H](C)CC)[C@@H](C)CC)[C@@H](C)CC)[C@@H](C)O)C(=O)O`: the results for the EC50 in test [1] and in test [2] were more than 1 µM and 0.0148 µM, respectively. Further, the Emax in test [3] was 4%; in test [4], 73%. In addition, in the test listed under Mus musculus, the Selectivity was more than 68.

Regarding `CC[C@H](C)[C@H](NC(=O)[C@@H](NC(=O)[C@H](CC(=O)O)NC(=O)[C@H](CC(C)C)NC(=O)[C@H](CC(C)C)NC(=O)[C@H](CC(C)C)NC(=O)[C@H](CCCN=C(N)N)NC(=O)[C@H](CC(N)=O)NC(=O)[C@H](CC(N)=O)NC(=O)[C@H](C)NC(=O)[C@H](C)NC(=O)[C@H](CCC(N)=O)NC(=O)[C@H](CCC(N)=O)NC(=O)[C@H](CCCCN)NC(=O)[C@H](CCC(=O)O)NC(=O)[C@H](CCCCN)NC(=O)[C@H](CCC(=O)O)NC(=O)[C@H](CCC(N)=O)NC(=O)[C@H](CCCCN)NC(=O)[C@H](CCC(=O)O)NC(=O)[C@@H](NC(=O)[C@H](CCC(=O)O)NC(=O)[C@@H](NC(=O)[C@H](CCSC)NC(=O)[C@H](CCCCN)NC(=O)[C@H](CCCN=C(N)N)NC(=O)[C@H](CC(C)C)NC(=O)[C@H](CC(C)C)NC(=O)[C@H](CC(C)C)NC(=O)[C@H](CC(C)C)NC(=O)[C@@H]1CCCN1C(=O)[C@H](CC(C)C)NC(=O)[C@H](CC(=O)O)NC(=O)[C@@H](NC(=O)[C@H](CO)NC(=O)[C@@H](NC(=O)[C@@H]1CCCN1C(=O)[C@@H]1CCCN1C(=O)CNC(=O)[C@@H]1CCC(=O)N1)[C@@H](C)CC)[C@@H](C)CC)[C@@H](C)CC)[C@@H](C)CC)[C@@H](C)O)C(=O)O`, the Emax in test [3] was 96%; in test [4], 100%. In addition, the Selectivity in the test listed under Mus musculus is 22.
